The values that follow come from patent publication US11524966B1 (Valo Early Discovery, Inc., priority 2017, dated 2022).

This test has as its target T1, USP25 (USP25-His6, Boston Biochem E-546) (Homo sapiens, UniProt Q9UHP3).
T1 construct: His6; purchased Boston Biochem E-546
T1 sequence (Q9UHP3 1-1055): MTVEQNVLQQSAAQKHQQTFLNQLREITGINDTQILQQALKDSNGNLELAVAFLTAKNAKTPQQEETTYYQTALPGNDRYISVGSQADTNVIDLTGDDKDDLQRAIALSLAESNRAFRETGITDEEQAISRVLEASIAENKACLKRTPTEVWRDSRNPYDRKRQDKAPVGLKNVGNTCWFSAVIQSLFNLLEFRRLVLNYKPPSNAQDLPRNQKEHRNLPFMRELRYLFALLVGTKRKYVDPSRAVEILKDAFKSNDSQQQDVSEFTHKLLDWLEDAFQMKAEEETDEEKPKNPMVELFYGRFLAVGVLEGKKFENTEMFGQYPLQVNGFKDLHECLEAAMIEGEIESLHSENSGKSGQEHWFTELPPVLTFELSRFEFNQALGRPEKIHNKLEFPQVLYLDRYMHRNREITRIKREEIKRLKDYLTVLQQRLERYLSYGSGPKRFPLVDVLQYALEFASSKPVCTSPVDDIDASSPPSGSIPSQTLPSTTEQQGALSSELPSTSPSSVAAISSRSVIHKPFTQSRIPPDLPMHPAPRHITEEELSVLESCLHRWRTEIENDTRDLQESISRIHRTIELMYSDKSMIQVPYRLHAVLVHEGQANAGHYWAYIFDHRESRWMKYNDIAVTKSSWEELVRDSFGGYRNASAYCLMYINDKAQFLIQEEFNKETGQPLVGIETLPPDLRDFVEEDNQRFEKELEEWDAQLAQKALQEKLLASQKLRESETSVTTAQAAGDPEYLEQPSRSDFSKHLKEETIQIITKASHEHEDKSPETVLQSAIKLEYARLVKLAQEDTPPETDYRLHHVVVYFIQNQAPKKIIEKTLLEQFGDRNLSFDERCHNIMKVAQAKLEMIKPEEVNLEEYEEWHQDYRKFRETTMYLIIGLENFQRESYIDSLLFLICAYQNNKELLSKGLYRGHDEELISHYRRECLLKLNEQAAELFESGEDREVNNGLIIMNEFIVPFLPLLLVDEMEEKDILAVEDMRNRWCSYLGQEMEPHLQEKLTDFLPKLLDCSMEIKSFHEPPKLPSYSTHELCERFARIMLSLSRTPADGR
Briefly: Ubiquitin-Rhodamine 110 Assay for USP25 Activity, Example A-2. Format: biochemical. The settings on record: Ubiquitin-Rhodamine 110 assay, Example A-2; read-out: USP25 A-2 IC50 range. The method, boiled down:
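Inhibition is quantified as IC50 by 4-parameter fit of fluorescence (485/535 nm) from Ub-Rh110 hydrolysis. Enzyme USP25-His6 at 75 pM with 30 min compound preincubation, then 25 nM substrate for 45 min at room temperature in pH 8.0 Tris buffer containing BME.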
In the case of `CCn1ccc2cc(C(=O)N[C@H]3CCc4nc(N5C[C@H](OC)[C@@H](N)C5)ccc4C3)cnc21` [Example 353, N-[(6S)-2-[(3S,4S)-3-amino-4-methoxypyrrolidin-1-yl]-5,6,7,8-tetrahydroquinolin-6-yl]-1-ethyl-1H-pyrrolo[2,3-b]pyridine-5-carboxamide], the IC50 was greater than 2000 nM.
As to `Cc1ccc2c(N)c(C(=O)N[C@H]3COc4cc(N5CC6CNC[C@](C)(C5)O6)cc(F)c4C3)sc2n1` [Example 413, 3-amino-N-[(3R)-5-fluoro-7-[(1R)-1-methyl-9-oxa-3,7-diazabicyclo[3.3.1]nonan-3-yl]-3,4-dihydro-2H-1-benzopyran-3-yl]-6-methylthieno[2,3-b]pyridine-2-carboxamide], the IC50 lay in the range of 200 to 2000 nM.
For the molecule `CCn1cc(Cl)c2cc(C(=O)N[C@H]3COc4c(C#N)c(N5CC6CCC(C5)N6)cc(F)c4C3)nnc21` [Example 356, 5-chloro-N-[(3R)-8-cyano-7-{3,8-diazabicyclo[3.2.1]octan-3-yl}-5-fluoro-3,4-dihydro-2H-1-benzopyran-3-yl]-7-ethyl-7H-pyrrolo[2,3-c]pyridazine-3-carboxamide], the IC50 was in the range of 200 to 2000 nM.
As to `Cc1ccc2c(N)c(C(=O)N[C@H]3COc4cc(N5CCC(O)CC5)ccc4C3)sc2n1` [Example 7-1, (R)-3-amino-N-(7-(4-hydroxypiperidin-1-yl)chroman-3-yl)-6-methylthieno[2,3-b]pyridine-2-carboxamide], the concentration for half-maximal inhibition (IC50) lay in the range of 200 to 2000 nM.
Turning to `CCn1cc(Cl)c2cc(C(=O)N[C@H]3COc4c(F)c(N5CC6CCC(C5)N6)cc(F)c4C3)nnc21` [Example 355, 5-chloro-N-[(3R)-7-{3,8-diazabicyclo[3.2.1]octan-3-yl}-5,8-difluoro-3,4-dihydro-2H-1-benzopyran-3-yl]-7-ethyl-7H-pyrrolo[2,3-c]pyridazine-3-carboxamide], the IC50 lay within 200 to 2000 nM.
Take `CC(=O)Nc1cccc(CNc2ccc(C(=O)N[C@H]3COc4cc(N5CCNCC5)ccc4C3)cn2)c1` [Example 473, (R)-6-((3-acetamidobenzyl)amino)-N-(7-(piperazin-1-yl)chroman-3-yl)nicotinamide]: the IC50 was greater than 2000 nM.
For `Cc1ccc2c(N)c(C(=O)N[C@H]3CCc4nc(N5C[C@H](C(F)F)[C@@H](N)C5)ccc4C3)sc2n1` [Example 347, 3-amino-N-[(6S)-2-[(3R,4S)-3-amino-4-(difluoromethyl)pyrrolidin-1-yl]-5,6,7,8-tetrahydroquinolin-6-yl]-6-methylthieno[2,3-b]pyridine-2-carboxamide], the IC50 fell in the range of 200 to 2000 nM.
In the case of `Cc1ccc2c(N)c(C(=O)N[C@H]3COc4cc(N5CCC[C@@](C)(O)C5)ccc4C3)sc2n1` [Example 7-3, 3-amino-N-((R)-7-((R)-3-hydroxy-3-methylpiperidin-l-yl)chroman-3-yl)-6-methylthieno[2,3-b]pyridine-2-carboxamide], the IC50 lay within 200 to 2000 nM.
With `Cc1ccc2c(N)c(C(=O)N[C@H]3COc4cc(N5C[C@H](N)[C@@H](F)C5)ccc4C3)sc2n1` [Example 3-7, 3-amino-N-((R)-7-((3S,4S)-3-amino-4-fluoropyrrolidin-1-yl)chroman-3-yl)-6-methylthieno[2,3-b]pyridine-2-carboxamide] the figure was 200 to 2000 nM; with `COC[C@H]1CN(c2ccc3c(n2)OC[C@H](NC(=O)c2sc4nc(C)cc(C)c4c2N)C3)C[C@H]1N` [Example 349, 3-amino-N-[(3R)-7-[(3S,4S)-3-amino-4-(methoxymethyl)pyrrolidin-1-yl]-2H,3H,4H-pyrano[2,3-b]pyridin-3-yl]-4,6-dimethylthieno[2,3-b]pyridine-2-carboxamide], 200 to 2000 nM; with `Cc1cnc2c(N)c(C(=O)N[C@H]3CCc4cc(N5CC(C(=O)O)C5)ccc4C3)sc2n1` [Example 6-4, (S)-1-(6-(7-amino-3-methylthieno[2,3-b]pyrazine-6-carboxamido)-5,6,7,8-tetrahydronaphthalen-2-yl)azetidine-3-carboxylic acid], greater than 2000 nM.
Take `Cc1ccn2ncc(C(=O)N[C@H]3COc4cc(N5CCNCC5)ccc4C3)c2c1` [Example 465, (R)-5-methyl-N-(7-(piperazin-1-yl)chroman-3-yl)pyrazolo[1,5-a]pyridine-3-carboxamide]: the IC50 was greater than 2000 nM.
For `Cc1ccc2c(N)c(C(=O)N[C@H]3COc4cc(N5CC6CNC[C@@](C)(C5)O6)cc(F)c4C3)sc2n1` [Example 414, 3-amino-N-[(3R)-5-fluoro-7-[(1S)-1-methyl-9-oxa-3,7-diazabicyclo[3.3.1]nonan-3-yl]-3,4-dihydro-2H-1-benzopyran-3-yl]-6-methylthieno[2,3-b]pyridine-2-carboxamide], the 50% inhibitory concentration (IC50) is 200 to 2000 nM.
In the case of `Cc1ccc2c(N)c(C(=O)N[C@H]3COc4cc(N5CCN[C@H](C(F)(F)F)C5)ccc4C3)sc2n1` [Example 3-12, 3-amino-6-methyl-N-((R)-7-((S)-3-(trifluoromethyl)piperazin-1-yl)chroman-3-yl)thieno[2,3-b]pyridine-2-carboxamide], the IC50 was in the range of 200 to 2000 nM.
Turning to `Cc1ccc2c(N)c(C(=O)N[C@H]3COc4cc(N5C[C@H](OC(F)(F)F)[C@@H](N)C5)ccc4C3)sc2n1` (single isomer, unassigned) [Example 3-10], the IC50 lay in the range of 200 to 2000 nM.
Regarding `CN[C@H]1CN(c2ccc3c(c2)OC[C@H](NC(=O)c2sc4nc(C)ccc4c2N)C3)C[C@@H]1O` [Example 350, 3-amino-N-[(3R)-7-[(3S,4S)-3-hydroxy-4-(methylamino)pyrrolidin-1-yl]-3,4-dihydro-2H-1-benzopyran-3-yl]-6-methylthieno[2,3-b]pyridine-2-carboxamide], the 50% inhibitory concentration (IC50) lay in the range of 200 to 2000 nM.
With `CCc1cccc2c(C(=O)N[C@H]3COc4cc(N5CCNCC5)ccc4C3)cnn12` [Example 474, 7-ethyl-N-[(3R)-7-(piperazin-1-yl)-3,4-dihydro-2H-1-benzopyran-3-yl]pyrazolo[1,5-a]pyridine-3-carboxamide] the figure was 200 to 2000 nM; with `O=C(N[C@H]1COc2cc(N3CCNCC3)ccc2C1)c1ccc(NCc2ccc3c(c2)OCCO3)nc1` [Example 471, (R)-6-(((2,3-dihydrobenzo[b][1,4]dioxin-6-yl)methyl)amino)-N-(7-(piperazin-1-yl)chroman-3-yl)nicotinamide], 200 to 2000 nM; with `Cc1ccc2c(N)c(C(=O)N[C@H]3COc4cc(N5CCC[C@](C)(O)C5)ccc4C3)sc2n1` [Example 7-2], 200 to 2000 nM.
In the case of `Cc1ccc2c(N)c(C(=O)N[C@@H]3CCc4cc(N5CC6CNCC(C5)O6)ccc4C3)sc2n1` [Example 451, N-((2R)-6-(9-oxa-3,7-diazabicyclo[3.3.1]nonan-3-yl)-1,2,3,4-tetrahydronaphthalen-2-yl)-3-amino-6-methylthieno[2,3-b]pyridine-2-carboxamide], the IC50 lay within 200 to 2000 nM.
Turning to `Cc1ccc2c(N)c(C(=O)N[C@H]3CCc4nc(N5C[C@H](N)[C@@H](C(F)(F)F)C5)ccc4C3)sc2n1` [Example 363, 3-amino-N-[(6S)-2-[(3R,4S)-3-amino-4-(trifluoromethyl)pyrrolidin-1-yl]-5,6,7,8-tetrahydroquinolin-6-yl]-6-methylthieno[2,3-b]pyridine-2-carboxamide], the IC50 lay in the range of 200 to 2000 nM.
Regarding `Cc1ccc2c(N)c(C(=O)N[C@H]3COc4cc(N5CCC(F)(F)CC5)ccc4C3)sc2n1` [Example 5-1, (R)-3-amino-N-(7-(4,4-difluoropiperidin-1-yl)chroman-3-yl)-6-methylthieno[2,3-b]pyridine-2-carboxamide], the IC50 was in the range of 50 to 200 nM.

As a reminder, the IC50 is the concentration that inhibits the measured activity by half.
